In patent US11931329B2, “Compositions and methods for treating anxiety-related disorders” (Yamo Pharmaceuticals LLC, priority 2019, dated 2024):

Assays:
Format in all cases: in vivo, human
[1] = system: patients diagnosed with Autistic Spectrum Disorder and one or more of Social Anxiety Disorder and Generalized Anxiety Disorder; experiment: Double blinded, placebo controlled dose ranging study of L1-79 in autism: social anxiety symptoms (case studies); conditions: for SRS/DSM-5 Social Communication scale range after treatment: after 4 weeks on L1-79
Experimental: (§1) Study Title: A Double Blinded, Randomized, Placebo Controlled, Dose Ranging Study for the use of L1-79 in the Treatment of Autism
(§2) Study Design: Blinded, randomized, 4-arm, 4-week treatment period. Treatment arms consist of α-methyl-DL-tyrosine (i.e., L1-79) in doses of 100 mg, or 200 mg, or placebo tid.
(§3) Sample Size:N=30; randomized and 10 open label to 4 groups:
(§4) Study Population: Male subjects between the ages of 13 and 21 years of age, diagnosed with autism who that meet the entry criteria and who are able to complete standardized measures allowing them to participate in this study.
(§5) Major Inclusion Criteria: Males between 13 and 21 years of age, signed informed consent, normal clinical laboratory values, DSM-5 compliant diagnosis of autism spectrum disorder, confirmed by the Autistic Diagnosis Interview Review (ADIR), and by the Autism Diagnosis Observation Schedule (ADOS) score consistent with a diagnosis of autism. No more than one concomitant medication, stable concomitant medications for at least 2 weeks prior to enrollment and no planned changes in psychosocial interventions during the trial.
(§6) Major Exclusion Criteria: Any co-morbidities, including Fragile-X syndrome, epilepsy, Retts syndrome, ADHD, or other disease or syndrome aside from autism that requires treatment. Any other psychiatric disorder, or out of range lab values. DSM-5 diagnosis of schizophrenia, schizoaffective disorder, alcohol use disorder; active medical problems: unstable seizures (>2 in past month), significant physical illness;
(§7) Experimental Treatment: L1-79 at doses of 100 or 200 mg three times daily for 4 weeks.
(§8) Dosage and Administration: L1-79 or placebo, as randomized, were administered orally according to the regimen above.
(§9) Evaluation Schedule: Subjects were evaluated within one week prior to study accession, and weekly throughout the dosing period, and again 4 weeks after the cessation of treatment.
(§10) Study Endpoints: The primary end point was an assessment of the safety of L1-79 based upon reported adverse events and changes in baseline in physical examination parameters that included orthostatic blood pressure, clinical laboratory measures, and ECGs. Secondary endpoints will include the attending physicians assessment as quantified by the Clinical Global Impressions scale based upon changes from baseline in various psychometric tests, including the Vineland Adaptive Behavior Scale 2nd edition (VABS II, VABS) questionnaire, the Autism Diagnostic Observation Schedule (ADOS), the Aberrant Behavior Checklist-Community (ABC-C), the Spencer Anxiety Scale (SAS), the Repetitive Behavior Score-Revised (RBS-R), the Social Responsiveness Scale (SRS), as well as from their personal observations in the clinic, and from videographic information taken during ADOS testing (per this protocol) and anecdotally as provided by caregivers over the course of this study.
Social anxiety symptoms included one or more of fear associated with meeting and talking to people, avoidance of social situations that would elicit significant anxiety in the past, anxiety in anticipation of a social situation, and an inability to initiate conversation with others. The presence of the social anxiety symptoms was recorded at baseline using the Aberrant Behavior Checklist-Community, the Spence Children's Anxiety Scale, the Social Responsiveness Scale, and/or the Clinical Global Impression Scale and direct parent report.
All of the patients were receiving L1-79 100-200 mg three times a day. None of the patients in the Social Anxiety symptom improvement group were receiving medication for Social Anxiety Disorder

[2] = system: ASD patient with obsessive thoughts and compulsive behaviors; experiment: Case study demonstrating reduction of obsessions and compulsions (SUBJECT); conditions: L1-79 100-200 mg three times per day
Excerpt: An ASD patient (SUBJECT) has a history of obsessive thoughts and compulsive behaviors that negatively impact their functioning. […]

[3] = system: patients diagnosed with Autistic Spectrum Disorder and one or more of Obsessive Compulsive Disorder and Attention Deficit/Hyperactivity Disorder; experiment: Double blinded, placebo controlled dose ranging study of L1-79 in autism: obsessive-compulsive symptoms (case studies)
Experimental: as §1, §2, §3, §4, §5, §6, §7, §8, §9, §10
Obsessive-compulsive symptoms can include ritualistic and repetitive/restricted behaviors, and obsessive thinking make it difficult for the patient to complete a task or concentrate in a conversation.
All of the patients were receiving L1-79 100-200 mg three times a day. None of the patients in the OCD symptom improvement group were receiving medication for Obsessive Compulsive Disorder
Obsessive-compulsive symptoms were initially recorded at baseline, and at end of active treatment using the Repetitive Behavior Scale, the Spence Children's’ Anxiety Scale, the Social Responsiveness Scale, the Clinical Global Impression Scale and direct parent report.

SMILES: CC(N)(Cc1ccc(O)cc1)C(=O)O (racemic) [L1-79, α-methyl-DL-tyrosine]
- social-anxiety symptoms ([1]; ASD patients with SAD and/or GAD, L1-79 100-200 mg three times a day): reductions in social-anxiety symptoms
- ABC-C Social Withdrawal after treatment ([1]; Subject 02-002, baseline 98%, L1-79 100-200 mg tid): 75%
- SRS/DSM-5 Social Communication scale range after treatment ([1]; Subject 02-002, baseline Severe): Moderate
- CGI-I, Social Interaction and Communication ([1]; Subject 02-002, week 4): Much Improved
- ABC-C Social Withdrawal after treatment ([1]; Subject 02-007, baseline 75%, week 4 of treatment): < 40%
- ABC-C Social Withdrawal after treatment ([1]; Subject 02-009, baseline 91%, week 4 of treatment with L1-79): 63%
- ABC-C Social Withdrawal after treatment ([1]; Subject 02-012, baseline 84%, L1-79 100-200 mg tid): < 40%
- CGI-Severity Score after treatment ([1]; Subject 02-012, baseline Moderately Ill): Borderline Ill
- SRS/DSM-5 Social Communication scale range after treatment ([1]; Subject 02-012, baseline Severe): Within Normal Limits
- CGI-I, Social Interaction and Communication ([1]; Subject 02-012, week 4): Much Improved
- CGI-I, Social Interactions and Communication area ([1]; Subject 02-014, L1-79 100-200 mg tid): Much Improved
- CGI-Severity score, Social Interaction area, after treatment ([1]; Subject 02-014, baseline Markedly Ill): Moderately Ill
- SRS/DSM-5 Social Communication scale range after treatment ([1]; Subject 02-016, baseline Mildly Deficient): Within Normal Limits
- CGI-Severity Score, Social Interaction and Communication, after treatment ([1]; Subject 02-016, baseline Mildly Ill): Normal
- CGI-I, Social Interaction and Communication ([1]; Subject 02-016, week 4): Much Improved
- CGI-I, Social Interaction and Communication ([1]; Subject 02-022, week 4 of treatment with L1-79): Much Improved
- compulsive behaviors/routines [2]: could be delayed or skipped
- obsessive thoughts [2]: significant decrease in obsessive thoughts
- rigid and inflexible thinking [2]: decrease in rigid and inflexible thinking
- obsessive-compulsive symptoms ([3]; ASD patients with OCD and/or ADHD, L1-79 100-200 mg three times a day): reductions in obsessive-compulsive symptoms
- SRS/DSM-5 Repetitive Behavior and Restrictive Interests score after treatment ([3]; Subject 02-002, baseline 96 (Severe), after treatment Moderate, L1-79 100-200 mg tid): 73
- SRS/DSM-5 Repetitive Behavior and Restrictive Interests range after treatment ([3]; Subject 02-003, baseline Severe, week 4, L1-79 100-200 mg tid): Moderate
- CGI-I, Stereotypic and Restricted Interests section ([3]; Subject 02-004, L1-79 100-200 mg tid): Much Improved
- Spence Children's Anxiety Scale OCD score after treatment ([3]; Subject 02-007, baseline 3.0 (anxiety disordered children), 0 = normal/no OCD, L1-79 100-200 mg tid): 0
- SRS/DSM-5 subscale Repetitive Behaviors and Restricted Interests range after treatment ([3]; Subject 02-007, baseline Moderate, L1-79 100-200 mg tid): Within Normal Limits
- CGI-I score (OCD symptoms) ([3]; Subject 02-012, L1-79 100-200 mg tid): Much Improved
- SRS/DSM-5 Repetitive Behavior and Restrictive Interests score after treatment ([3]; Subject 02-012, baseline 80 (Severe), after treatment Within Normal Limits, L1-79 100-200 mg tid): 46
- SRS/DSM-5 Repetitive Behavior and Restrictive Interests score after treatment ([3]; Subject 02-16, baseline 65 (Mild), after treatment Within Normal Limits, L1-79 100-200 mg tid): 46
- CGI-Severity scale, Stereotyped Behaviors and Restricted Interests, after treatment ([3]; Subject 02-16, baseline Mildly Ill, L1-79 100-200 mg tid): Normal
- SRS/DSM-5 Repetitive Behavior and Restrictive Interests score after treatment ([3]; Subject 02-020, baseline 85 (Severe), after treatment Moderate, L1-79 100-200 mg tid): 73
- obsessive interest / preoccupation in conversation ([3]; one patient who could talk only about their obsessive interest at baseline, after 4 weeks on active drug): able to have conversations about things of interest to others
- self-injurious compulsive behaviors ([3]; one patient with self-injurious compulsive behaviors at baseline, after 3 weeks on active drug): completely stopped self-injury
- anxiety-related symptoms ([3]; patients with OCD or SAD in the L1-79 autism study, 100 or 200 mg tid, 4 weeks, oral): improved anxiety-related symptoms
